Source: patent publication US8410044B2, “Bacitracin antibiotics” (Xellia Pharmaceuticals Aps, priority 2009, dated 2013)
Where a SMILES comes first, the peptide text is derived from it. Bridges are numbered along the chain shown (N, C = ends). [ ]: non-standard residue; d: D form. The star is where a group is joined. X2 = CCC(C)C(N)C1=NC(C(=O)*)CS1; Orn = NCCC[CH](N)C(=O)O

Tested on: Micrococcus luteus
Assay: Potency (specific antibacterial activity): agar plate inhibition zones compared with Bacitracin Zinc standard
Assay type: cell-based
Conditions: calculated from potency of sample A and its 93% area-% content
Protocol: Potency is the in vitro antibacterial activity. It can be measurered and expressed as IU/mg. The antibacterial activity of samples A, B′ and C′ (see Table 1) was measured. The specific antibacterial activity (listed here as IU/mg), often termed potency, was measured by comparing the antibacterial activity of the unknown sample with known (standard) samples. Specifically, a Bacitracin Zinc standard was dissolved and diluted to 2.0, 1.0, and 0.5 IU bacitracin/ml in 0.07 M phosphate buffer pH 6.0. These three standard solutions were added to agar plates inoculated with the test organism, Micrococcus luteus. The unknown samples were dissolved, diluted and added to the same plate as the standards. After 16-24 hours at 32-37 C, the inhibition zones were measured and the unknown samples were compared to the standards.

SMILES: CCC(C)C(N)C1=NC(C(=O)NC(CC(C)C)C(=O)NC(CCC(=O)O)C(=O)NC(C(=O)NC2CCCCNC(=O)C(CC(N)=O)NC(=O)C(CC(=O)O)NC(=O)C(Cc3c[nH]cn3)NC(=O)C(Cc3ccccc3)NC(=O)C(C(C)CC)NC(=O)C(CCCN)NC2=O)C(C)CC)CS1 (stereo not shown) [Bacitracin A] (X2-LEIK[Orn]IFHDN; lactam 4-C; configuration not given here)
- specific antibacterial activity of Bacitracin A, calculated from sample A (93% Bacitracin A by HPLC at 254 nm): 77.4 IU/mg
